Drawing on the supplement of paper PMC12463676, “Small-molecule dissolution of stress granules by redox modulation benefits ALS models” (Nature Chemical Biology, 2025), this text covers thermal stability z-score for 42 targets.

Compound in one assay: NC(=O)CCCCC1CCSS1 [lipoamide]
In words: thermal stability z-score vs DMSO; higher = more thermally stabilized by treatment. The following applies: HeLa, lipoamide concentration 100 µM. The protocol: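 Cellular thermal proteome profiling in HeLa cells. Cells were treated with 100 µM lipoamide for 1 h, with or without 1 mM arsenate for a further 1 h, then heated to ten temperatures (37-66.3 °C), and soluble protein was quantified by TMT mass spectrometry relative to 0.1% DMSO controls. The thermal stability score (sum of log2 fold changes minus the abundance score) was transformed to a z-score; mean of n = 3 experiments.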

Compound in a further assay: O=[As]([O-])(O)O.[K+] [potassium arsenate]
The description is as above. The following applies: HeLa; arsenate concentration 1 mM. The protocol: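 Cellular thermal proteome profiling in HeLa cells treated with 1 mM arsenate for 1 h (DMSO pretreatment), heated to ten temperatures (37-66.3 °C). Soluble protein was quantified by TMT mass spectrometry relative to DMSO controls; the thermal stability score was transformed to a z-score; mean of n = 3 experiments.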

Setting [1] is: arsenate co-treatment: 1 mM arsenate 1 h.
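Further: each temperature applied for 3 min, abundance score taken as mean log2 fold change at the two lowest temperatures, z-score obtained by mean subtraction and division by SD.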

Chain of UniProt Q53FT3 (Q53FT3 whole entry): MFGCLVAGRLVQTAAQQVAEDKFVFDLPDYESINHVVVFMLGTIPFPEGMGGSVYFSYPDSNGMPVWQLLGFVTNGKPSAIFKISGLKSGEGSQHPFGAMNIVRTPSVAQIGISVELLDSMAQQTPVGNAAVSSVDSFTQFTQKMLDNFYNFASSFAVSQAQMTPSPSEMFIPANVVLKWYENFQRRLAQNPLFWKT
Chain of UniProt Q86X55 (Q86X55 whole entry): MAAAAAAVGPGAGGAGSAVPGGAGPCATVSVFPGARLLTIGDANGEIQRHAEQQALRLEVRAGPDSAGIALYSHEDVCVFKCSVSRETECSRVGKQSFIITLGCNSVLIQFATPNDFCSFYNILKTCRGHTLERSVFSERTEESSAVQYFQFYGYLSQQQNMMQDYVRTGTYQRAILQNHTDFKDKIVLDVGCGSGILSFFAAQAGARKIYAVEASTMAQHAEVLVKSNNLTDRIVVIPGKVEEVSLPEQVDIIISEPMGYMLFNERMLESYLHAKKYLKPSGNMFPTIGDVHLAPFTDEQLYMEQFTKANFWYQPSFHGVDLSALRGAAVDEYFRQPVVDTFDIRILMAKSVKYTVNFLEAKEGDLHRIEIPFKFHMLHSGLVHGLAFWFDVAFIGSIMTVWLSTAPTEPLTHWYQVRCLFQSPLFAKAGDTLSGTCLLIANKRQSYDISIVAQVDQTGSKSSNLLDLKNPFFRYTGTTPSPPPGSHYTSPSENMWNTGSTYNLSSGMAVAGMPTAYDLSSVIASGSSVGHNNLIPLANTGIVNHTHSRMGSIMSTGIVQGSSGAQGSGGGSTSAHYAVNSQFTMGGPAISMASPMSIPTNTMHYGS
Chain of UniProt P08648 (P08648 whole entry): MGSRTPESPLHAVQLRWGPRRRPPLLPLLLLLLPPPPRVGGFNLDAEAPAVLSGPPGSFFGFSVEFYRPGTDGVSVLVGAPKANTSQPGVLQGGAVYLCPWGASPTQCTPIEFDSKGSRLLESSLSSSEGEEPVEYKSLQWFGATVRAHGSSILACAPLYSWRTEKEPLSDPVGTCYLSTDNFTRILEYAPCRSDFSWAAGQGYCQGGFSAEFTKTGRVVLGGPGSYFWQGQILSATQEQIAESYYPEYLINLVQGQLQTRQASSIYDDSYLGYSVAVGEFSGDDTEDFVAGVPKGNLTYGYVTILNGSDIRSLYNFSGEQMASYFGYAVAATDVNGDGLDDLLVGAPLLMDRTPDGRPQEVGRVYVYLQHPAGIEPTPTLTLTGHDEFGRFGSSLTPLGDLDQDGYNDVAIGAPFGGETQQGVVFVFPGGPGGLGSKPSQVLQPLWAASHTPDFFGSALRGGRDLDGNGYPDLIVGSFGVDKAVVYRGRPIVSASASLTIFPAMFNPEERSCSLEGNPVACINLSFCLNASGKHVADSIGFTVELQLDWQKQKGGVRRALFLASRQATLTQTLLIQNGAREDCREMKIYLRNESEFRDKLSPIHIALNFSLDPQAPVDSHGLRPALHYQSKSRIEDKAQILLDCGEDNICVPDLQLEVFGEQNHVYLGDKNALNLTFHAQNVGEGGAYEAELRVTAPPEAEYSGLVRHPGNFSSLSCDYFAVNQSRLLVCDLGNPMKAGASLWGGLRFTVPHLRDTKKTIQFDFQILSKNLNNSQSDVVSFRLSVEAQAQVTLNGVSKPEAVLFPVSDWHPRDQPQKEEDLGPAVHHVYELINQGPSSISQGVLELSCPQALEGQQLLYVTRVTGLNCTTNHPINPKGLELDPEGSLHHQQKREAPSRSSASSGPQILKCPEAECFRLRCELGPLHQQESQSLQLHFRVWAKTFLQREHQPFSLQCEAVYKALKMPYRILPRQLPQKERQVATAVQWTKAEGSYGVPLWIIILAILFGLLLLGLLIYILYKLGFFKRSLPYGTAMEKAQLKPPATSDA
Chain of UniProt P35222 (P35222 whole entry): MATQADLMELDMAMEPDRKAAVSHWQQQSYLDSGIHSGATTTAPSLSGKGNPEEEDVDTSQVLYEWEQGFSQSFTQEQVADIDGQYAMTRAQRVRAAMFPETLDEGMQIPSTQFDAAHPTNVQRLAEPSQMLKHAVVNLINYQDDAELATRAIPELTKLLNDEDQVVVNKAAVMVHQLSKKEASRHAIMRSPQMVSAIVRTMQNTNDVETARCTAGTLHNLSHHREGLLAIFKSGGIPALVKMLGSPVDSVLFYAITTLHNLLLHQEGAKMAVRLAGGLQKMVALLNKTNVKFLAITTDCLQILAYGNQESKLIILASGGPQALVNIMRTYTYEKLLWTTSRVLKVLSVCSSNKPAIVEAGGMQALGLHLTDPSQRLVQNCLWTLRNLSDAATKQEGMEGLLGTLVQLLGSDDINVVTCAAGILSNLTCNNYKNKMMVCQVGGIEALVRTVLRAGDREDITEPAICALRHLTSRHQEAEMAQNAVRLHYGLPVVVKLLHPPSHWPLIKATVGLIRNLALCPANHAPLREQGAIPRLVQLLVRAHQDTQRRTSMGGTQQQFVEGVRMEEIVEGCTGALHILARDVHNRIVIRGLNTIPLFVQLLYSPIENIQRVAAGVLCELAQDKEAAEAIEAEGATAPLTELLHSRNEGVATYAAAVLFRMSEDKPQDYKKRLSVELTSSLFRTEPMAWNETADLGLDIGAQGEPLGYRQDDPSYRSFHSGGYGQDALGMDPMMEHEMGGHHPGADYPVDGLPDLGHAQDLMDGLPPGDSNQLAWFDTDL
Chain of UniProt Q96S90 (Q96S90 whole entry): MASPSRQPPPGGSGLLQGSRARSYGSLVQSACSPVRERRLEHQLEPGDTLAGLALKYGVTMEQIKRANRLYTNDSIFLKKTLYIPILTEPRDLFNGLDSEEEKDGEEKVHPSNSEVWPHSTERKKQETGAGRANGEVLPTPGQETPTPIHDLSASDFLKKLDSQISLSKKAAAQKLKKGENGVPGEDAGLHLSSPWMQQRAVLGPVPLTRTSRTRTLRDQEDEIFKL
Chain of UniProt Q9BUJ2 (Q9BUJ2 whole entry): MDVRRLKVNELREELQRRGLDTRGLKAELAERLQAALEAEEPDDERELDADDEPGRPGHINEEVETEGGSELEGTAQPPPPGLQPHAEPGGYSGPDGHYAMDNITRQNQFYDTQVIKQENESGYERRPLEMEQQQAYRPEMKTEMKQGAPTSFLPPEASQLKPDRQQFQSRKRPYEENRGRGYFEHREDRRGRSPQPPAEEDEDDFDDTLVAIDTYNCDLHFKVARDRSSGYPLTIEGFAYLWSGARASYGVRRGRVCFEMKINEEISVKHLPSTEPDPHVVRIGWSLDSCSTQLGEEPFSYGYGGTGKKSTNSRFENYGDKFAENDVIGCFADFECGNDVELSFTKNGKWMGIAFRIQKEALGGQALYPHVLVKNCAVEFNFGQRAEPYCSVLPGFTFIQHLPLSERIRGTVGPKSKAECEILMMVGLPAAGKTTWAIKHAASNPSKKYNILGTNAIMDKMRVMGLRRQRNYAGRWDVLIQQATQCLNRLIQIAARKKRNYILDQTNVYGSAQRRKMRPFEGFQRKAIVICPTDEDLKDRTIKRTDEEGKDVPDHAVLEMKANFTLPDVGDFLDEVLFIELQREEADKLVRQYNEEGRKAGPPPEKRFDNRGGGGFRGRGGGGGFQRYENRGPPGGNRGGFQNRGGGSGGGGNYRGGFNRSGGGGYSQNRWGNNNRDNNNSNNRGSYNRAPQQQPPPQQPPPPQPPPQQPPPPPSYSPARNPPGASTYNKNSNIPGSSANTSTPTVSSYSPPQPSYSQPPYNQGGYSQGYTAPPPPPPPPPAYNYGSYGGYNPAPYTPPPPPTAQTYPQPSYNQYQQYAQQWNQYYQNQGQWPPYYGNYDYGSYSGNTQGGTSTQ
Chain of UniProt Q12834 (Q12834 whole entry): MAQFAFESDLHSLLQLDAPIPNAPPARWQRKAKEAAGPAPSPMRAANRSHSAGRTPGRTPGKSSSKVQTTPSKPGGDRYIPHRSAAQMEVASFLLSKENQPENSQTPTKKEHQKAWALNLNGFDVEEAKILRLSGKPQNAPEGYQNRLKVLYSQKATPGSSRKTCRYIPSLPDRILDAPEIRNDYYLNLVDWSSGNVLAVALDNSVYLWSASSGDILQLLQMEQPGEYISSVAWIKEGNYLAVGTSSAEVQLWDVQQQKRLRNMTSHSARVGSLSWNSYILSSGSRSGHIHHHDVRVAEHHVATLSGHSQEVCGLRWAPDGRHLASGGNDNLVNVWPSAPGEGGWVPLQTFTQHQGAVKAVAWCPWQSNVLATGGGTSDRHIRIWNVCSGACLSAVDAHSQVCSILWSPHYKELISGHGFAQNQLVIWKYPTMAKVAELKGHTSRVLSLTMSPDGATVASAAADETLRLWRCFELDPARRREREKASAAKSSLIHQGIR
Chain of UniProt Q15084 (Q15084 whole entry): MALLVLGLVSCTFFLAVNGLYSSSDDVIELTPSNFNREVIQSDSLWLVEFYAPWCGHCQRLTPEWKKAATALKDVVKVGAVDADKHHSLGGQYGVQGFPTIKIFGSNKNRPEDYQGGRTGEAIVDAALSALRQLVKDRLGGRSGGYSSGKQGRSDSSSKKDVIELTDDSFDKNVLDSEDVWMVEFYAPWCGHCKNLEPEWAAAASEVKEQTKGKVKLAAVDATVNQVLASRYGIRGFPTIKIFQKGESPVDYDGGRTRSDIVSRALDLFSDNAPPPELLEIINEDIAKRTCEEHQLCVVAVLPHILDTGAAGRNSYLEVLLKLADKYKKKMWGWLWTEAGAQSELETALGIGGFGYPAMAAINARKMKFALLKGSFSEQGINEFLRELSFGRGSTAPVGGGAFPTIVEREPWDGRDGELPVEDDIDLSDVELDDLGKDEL
Chain of UniProt Q9P031 (Q9P031 whole entry): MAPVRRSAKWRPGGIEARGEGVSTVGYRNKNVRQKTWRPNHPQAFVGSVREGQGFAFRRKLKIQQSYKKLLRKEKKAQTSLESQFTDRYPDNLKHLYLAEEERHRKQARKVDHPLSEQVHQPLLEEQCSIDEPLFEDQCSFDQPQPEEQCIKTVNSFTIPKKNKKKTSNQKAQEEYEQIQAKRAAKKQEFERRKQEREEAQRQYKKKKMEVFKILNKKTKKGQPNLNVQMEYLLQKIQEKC
Chain of UniProt P14621 (P14621 whole entry): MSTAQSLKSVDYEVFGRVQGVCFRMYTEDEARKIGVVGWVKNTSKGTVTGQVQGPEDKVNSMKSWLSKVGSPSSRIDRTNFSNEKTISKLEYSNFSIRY

On to ANGEL2 (UniProt Q5VTE6), for which the thermal stability z-score in the assay with lipoamide (setting [1]) is -0.111; with lipoamide (arsenate co-treatment: none), -0.19; with potassium arsenate, -0.0197.
As for LYSMD1 (UniProt Q96S90), the thermal stability z-score in the assay with lipoamide (setting [1]) was found to be 1.23; in the assay with lipoamide (arsenate co-treatment: none) it was 0.621; with potassium arsenate, 0.777.
For CARM1 (UniProt Q86X55), in that order: 0.99, 0.944 and 0.086.
The like results for DYNC2H1 (UniProt Q8NCM8) were, in that order, -0.15, -0.28 and -0.209.
The like results for TTLL12 (UniProt Q14166) were, in that order, 1.14, 0.696 and -0.427.
For CDV3 (UniProt Q9UKY7), the thermal stability z-score with lipoamide (setting [1]) came to 0.669; with lipoamide (arsenate co-treatment: none) it was 0.83; with potassium arsenate, 0.683.
For ZFYVE9 (UniProt O95405), in that order: -0.0978, -0.0701 and -0.021.
As for PDIA6 (UniProt Q15084), the results for the thermal stability z-score in the assay with lipoamide (setting [1]), in the assay with lipoamide (arsenate co-treatment: none) and in the assay with potassium arsenate were -2.44, -1.84 and 0.475, respectively.
For MPDZ (UniProt O75970), in that order: -0.25, -0.0819 and 0.0169.
The like results for RAB3GAP1 (UniProt Q15042) were, in that order, -0.562, -0.113 and 0.764.
Take TMEM57 (UniProt Q8N5G2): the thermal stability z-score with lipoamide (setting [1]) is 0.13; in the assay with lipoamide (arsenate co-treatment: none) it was -0.0957; in the assay with potassium arsenate, -0.249.
For ITGA5 (UniProt P08648), in that order: 0.408, 0.203 and 0.211.
The like results for CCDC59 (UniProt Q9P031) were, in that order, -0.52, -0.816 and 1.06.
For ATP6V1E1 (UniProt P36543), in that order: 0.0691, -0.201 and 0.637.
On to C11ORF73 (UniProt Q53FT3), for which the thermal stability z-score was 0.0228 with lipoamide (setting [1]), 0.0059 with lipoamide (arsenate co-treatment: none) and -0.162 with potassium arsenate.
As to PPHLN1 (UniProt Q8NEY8), the values for the thermal stability z-score with lipoamide (setting [1]), with lipoamide (arsenate co-treatment: none) and with potassium arsenate were 0.687, 0.672 and -0.137, respectively.
For CRYZ (UniProt Q08257), the thermal stability z-score with lipoamide (setting [1]) turned out to be 0.232; with lipoamide (arsenate co-treatment: none), 0.229; with potassium arsenate it was 0.207.
For ABCF1 (UniProt Q8NE71), the thermal stability z-score with lipoamide (setting [1]) was -0.384; with lipoamide (arsenate co-treatment: none) it was -0.353; in the assay with potassium arsenate it was 1.14.
The like results for HNRNPUL1 (UniProt Q9BUJ2) were, in that order, 0.162, 0.44 and 0.283.
In the case of ACYP2 (UniProt P14621), the values for the thermal stability z-score with lipoamide (setting [1]), in the assay with lipoamide (arsenate co-treatment: none) and with potassium arsenate were 0.611, 0.261 and -0.0225, respectively.
Consider IFRD2 (UniProt Q12894), for which the thermal stability z-score amounted to 0.798 in the assay with lipoamide (setting [1]), 0.638 with lipoamide (arsenate co-treatment: none) and 3.33 with potassium arsenate.
The like results for TRABD2A (UniProt Q86V40) were, in that order, -0.806, -1.21 and 0.517.
Regarding DHFR (UniProt P00374), the thermal stability z-score with lipoamide (setting [1]) is -0.995; in the assay with lipoamide (arsenate co-treatment: none), -0.563; with potassium arsenate, 0.324.
For the target HAUS1 (UniProt Q96CS2), the thermal stability z-score in the assay with lipoamide (setting [1]) was 0.0371; with lipoamide (arsenate co-treatment: none), 0.00541; in the assay with potassium arsenate it was 0.0563.
Consider CDC20 (UniProt Q12834), for which the figures for the thermal stability z-score with lipoamide (setting [1]), with lipoamide (arsenate co-treatment: none) and with potassium arsenate were -0.124, -0.245 and -1.51, respectively.
Turning to YTHDF3 (UniProt Q7Z739), the figures for the thermal stability z-score with lipoamide (setting [1]), with lipoamide (arsenate co-treatment: none) and with potassium arsenate were -0.486, 0.111 and 0.174, respectively.
For WDR19 (UniProt Q8NEZ3), the values for the thermal stability z-score in the assay with lipoamide (setting [1]), with lipoamide (arsenate co-treatment: none) and with potassium arsenate were -0.121, 0.369 and 0.81, respectively.
With SNRPB2 (UniProt P08579), the thermal stability z-score with lipoamide (setting [1]) was 0.953; in the assay with lipoamide (arsenate co-treatment: none), 0.704; with potassium arsenate, -0.319.
For TTC21B (UniProt Q7Z4L5), in that order: -0.223, -0.505 and -0.277.
The like results for MOCS2 were, in that order, 0.00471, 0.303 and -0.289.
The like results for FDX1 (UniProt P10109) were, in that order, -0.234, -0.162 and -0.0279.
With TCOF1 (UniProt Q13428), the thermal stability z-score was 0.957 in the assay with lipoamide (setting [1]), 0.648 in the assay with lipoamide (arsenate co-treatment: none) and 0.157 with potassium arsenate.
For MGAT2 (UniProt Q10469), in that order: -0.206, -0.0594 and 0.24.
For the target UBAC2 (UniProt Q8NBM4), the thermal stability z-score with lipoamide (setting [1]) was -0.594; with lipoamide (arsenate co-treatment: none), -0.778; in the assay with potassium arsenate it was -0.0559.
On to MYBBP1A (UniProt Q9BQG0), for which the values for the thermal stability z-score with lipoamide (setting [1]), with lipoamide (arsenate co-treatment: none) and with potassium arsenate were 1.21, 0.675 and -1.35, respectively.
Take FAM120C (UniProt Q9NX05): the thermal stability z-score with lipoamide (setting [1]) is -0.0604; with lipoamide (arsenate co-treatment: none), -0.0122; in the assay with potassium arsenate it was -0.296.
For MARVELD2 (UniProt Q8N4S9), the thermal stability z-score in the assay with lipoamide (setting [1]) is -0.452; with lipoamide (arsenate co-treatment: none), 0.477; with potassium arsenate, -0.292.
For CTNNB1 (UniProt P35222), in that order: 0.545, 0.798 and 0.308.
For PIGN (UniProt O95427), in that order: 0.0724, -0.0621 and 0.41.
On to AAR2 (UniProt Q9Y312), for which the values for the thermal stability z-score with lipoamide (setting [1]), with lipoamide (arsenate co-treatment: none) and with potassium arsenate were -0.223, 0.408 and -0.912, respectively.
On to WWP2 (UniProt O00308), for which the thermal stability z-score with lipoamide (setting [1]) was -0.0648; with lipoamide (arsenate co-treatment: none), -0.0387; in the assay with potassium arsenate, 0.0179.
For PIP4K2C (UniProt Q8TBX8), in that order: 0.0507, 0.12 and 1.78.
